Results reported in ChEMBL document CHEMBL5360622, “Leucettinibs, a Class of DYRK/CLK Kinase Inhibitors Inspired by the Marine Sponge Natural Product Leucettamine B” (J Med Chem, 2023).

What was measured:
[1] = target: Casein kinase I isoform epsilon (Homo sapiens, UniProt P49674)
[2] = target: T1, Dual specificity tyrosine-phosphorylation-regulated kinase 2 (Homo sapiens, UniProt Q92630)
T1 sequence (Q92630 whole entry): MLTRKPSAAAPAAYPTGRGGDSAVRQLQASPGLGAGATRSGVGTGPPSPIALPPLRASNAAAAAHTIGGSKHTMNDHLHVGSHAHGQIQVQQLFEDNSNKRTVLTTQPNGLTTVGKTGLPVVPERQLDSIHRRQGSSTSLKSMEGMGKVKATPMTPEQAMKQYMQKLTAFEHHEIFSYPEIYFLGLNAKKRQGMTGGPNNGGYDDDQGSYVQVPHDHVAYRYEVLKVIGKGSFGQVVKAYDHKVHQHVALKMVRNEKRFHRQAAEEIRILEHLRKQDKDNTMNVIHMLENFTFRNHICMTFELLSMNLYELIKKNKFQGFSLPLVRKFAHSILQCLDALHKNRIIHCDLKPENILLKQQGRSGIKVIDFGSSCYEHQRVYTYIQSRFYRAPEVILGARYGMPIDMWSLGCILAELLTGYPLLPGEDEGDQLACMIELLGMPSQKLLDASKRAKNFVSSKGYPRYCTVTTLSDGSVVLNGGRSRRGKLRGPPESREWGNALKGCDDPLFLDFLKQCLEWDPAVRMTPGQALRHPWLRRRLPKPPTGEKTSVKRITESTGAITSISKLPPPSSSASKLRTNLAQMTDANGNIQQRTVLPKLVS

[3] = target: Dual specificity protein kinase CLK2 (Homo sapiens, UniProt P49760)
[4] = target: Dual specificity protein kinase CLK3 (Homo sapiens, UniProt P49761); assay type: cell-based, Sf9
[5] = target: T2, Dual specificity tyrosine-phosphorylation-regulated kinase 3 (Homo sapiens, UniProt O43781)
T2 sequence (O43781 whole entry): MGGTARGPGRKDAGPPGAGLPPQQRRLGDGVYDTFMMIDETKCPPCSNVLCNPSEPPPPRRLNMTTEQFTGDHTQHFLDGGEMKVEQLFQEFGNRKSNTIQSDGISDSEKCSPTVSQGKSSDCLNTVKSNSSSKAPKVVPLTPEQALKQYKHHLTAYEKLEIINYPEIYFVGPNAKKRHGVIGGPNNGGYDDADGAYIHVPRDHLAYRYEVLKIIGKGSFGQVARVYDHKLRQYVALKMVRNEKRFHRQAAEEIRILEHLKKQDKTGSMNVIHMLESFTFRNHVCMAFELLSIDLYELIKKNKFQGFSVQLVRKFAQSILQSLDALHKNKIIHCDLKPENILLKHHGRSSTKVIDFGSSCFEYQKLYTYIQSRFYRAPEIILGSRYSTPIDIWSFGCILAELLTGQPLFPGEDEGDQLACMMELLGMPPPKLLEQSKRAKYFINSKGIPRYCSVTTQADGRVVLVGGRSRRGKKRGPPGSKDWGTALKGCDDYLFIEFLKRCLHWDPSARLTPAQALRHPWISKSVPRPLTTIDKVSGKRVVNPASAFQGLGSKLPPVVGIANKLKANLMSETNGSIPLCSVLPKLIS

[6] = target: Cyclin-dependent kinase 5/CDK5 activator 1 (Homo sapiens, UniProt Q00535); assay type: cell-based, Sf9
[7] = target: T3, Dual specificity tyrosine-phosphorylation-regulated kinase 4 (Homo sapiens, UniProt Q9NR20)
T3 sequence (Q9NR20 whole entry): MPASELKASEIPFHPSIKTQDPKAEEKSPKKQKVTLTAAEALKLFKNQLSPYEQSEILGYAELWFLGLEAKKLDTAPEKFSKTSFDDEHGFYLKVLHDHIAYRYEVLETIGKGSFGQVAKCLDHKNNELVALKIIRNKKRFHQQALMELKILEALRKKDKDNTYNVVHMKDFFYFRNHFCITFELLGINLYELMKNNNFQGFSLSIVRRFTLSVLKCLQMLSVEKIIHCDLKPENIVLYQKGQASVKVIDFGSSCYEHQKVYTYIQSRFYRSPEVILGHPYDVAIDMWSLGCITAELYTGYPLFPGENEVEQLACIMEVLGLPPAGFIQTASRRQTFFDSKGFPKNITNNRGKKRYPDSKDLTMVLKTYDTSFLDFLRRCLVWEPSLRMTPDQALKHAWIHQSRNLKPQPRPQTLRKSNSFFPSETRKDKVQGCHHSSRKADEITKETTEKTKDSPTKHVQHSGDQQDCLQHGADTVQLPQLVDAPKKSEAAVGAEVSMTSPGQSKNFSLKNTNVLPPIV

[8] = target: Glycogen synthase kinase-3 beta (Homo sapiens, UniProt P49841); assay type: cell-based, Sf9
Glycogen synthase kinase-3 beta, sequence (P49841 whole entry): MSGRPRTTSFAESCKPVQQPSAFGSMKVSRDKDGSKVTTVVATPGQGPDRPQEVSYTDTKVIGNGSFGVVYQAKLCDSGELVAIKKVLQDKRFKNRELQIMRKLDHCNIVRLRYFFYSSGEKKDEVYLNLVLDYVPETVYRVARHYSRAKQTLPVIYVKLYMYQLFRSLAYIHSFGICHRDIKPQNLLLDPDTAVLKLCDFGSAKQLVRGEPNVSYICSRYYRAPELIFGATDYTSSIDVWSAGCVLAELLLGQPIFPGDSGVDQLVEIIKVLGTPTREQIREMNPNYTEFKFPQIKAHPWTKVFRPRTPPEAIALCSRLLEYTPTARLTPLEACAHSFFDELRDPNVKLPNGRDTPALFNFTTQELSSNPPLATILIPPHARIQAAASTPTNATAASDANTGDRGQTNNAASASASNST

Casein kinase I isoform epsilon, sequence (P49674 whole entry, canonical isoform): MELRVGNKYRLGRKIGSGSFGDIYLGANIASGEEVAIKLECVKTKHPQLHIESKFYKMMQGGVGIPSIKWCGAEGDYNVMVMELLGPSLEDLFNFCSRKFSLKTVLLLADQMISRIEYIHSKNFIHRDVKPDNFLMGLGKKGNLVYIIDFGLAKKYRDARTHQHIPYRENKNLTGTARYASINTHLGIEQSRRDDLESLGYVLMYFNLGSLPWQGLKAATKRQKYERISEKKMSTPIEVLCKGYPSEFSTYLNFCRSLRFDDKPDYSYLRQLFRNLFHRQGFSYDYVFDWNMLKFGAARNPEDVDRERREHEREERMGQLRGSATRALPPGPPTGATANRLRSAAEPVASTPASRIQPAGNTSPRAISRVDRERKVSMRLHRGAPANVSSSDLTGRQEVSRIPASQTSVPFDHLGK
Dual specificity protein kinase CLK3, sequence (P49761 whole entry): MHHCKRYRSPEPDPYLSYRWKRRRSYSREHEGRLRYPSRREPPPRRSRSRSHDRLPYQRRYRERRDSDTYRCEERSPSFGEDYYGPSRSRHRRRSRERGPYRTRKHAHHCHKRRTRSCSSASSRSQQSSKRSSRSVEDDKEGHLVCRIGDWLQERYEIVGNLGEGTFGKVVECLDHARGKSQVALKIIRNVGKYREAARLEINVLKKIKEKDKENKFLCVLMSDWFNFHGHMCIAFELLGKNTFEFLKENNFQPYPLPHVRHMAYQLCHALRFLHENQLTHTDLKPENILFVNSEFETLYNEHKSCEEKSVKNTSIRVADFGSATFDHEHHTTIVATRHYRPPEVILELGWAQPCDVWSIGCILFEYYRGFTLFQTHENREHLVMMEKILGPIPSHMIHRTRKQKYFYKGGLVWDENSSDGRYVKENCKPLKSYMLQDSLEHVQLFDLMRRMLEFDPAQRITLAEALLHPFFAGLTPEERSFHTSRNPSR
Cyclin-dependent kinase 5/CDK5 activator 1, sequence (Q00535 whole entry): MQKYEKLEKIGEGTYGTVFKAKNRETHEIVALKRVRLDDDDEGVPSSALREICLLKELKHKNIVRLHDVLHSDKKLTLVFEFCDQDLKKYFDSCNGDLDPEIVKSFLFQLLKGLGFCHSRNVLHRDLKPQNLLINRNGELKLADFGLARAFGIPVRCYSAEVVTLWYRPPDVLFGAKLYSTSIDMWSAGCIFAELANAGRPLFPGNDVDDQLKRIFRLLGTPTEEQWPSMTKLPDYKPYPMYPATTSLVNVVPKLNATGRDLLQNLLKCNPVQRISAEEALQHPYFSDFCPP
Cyclin-dependent kinase 5/CDK5 activator 1, sequence (Q15078 whole entry, further chain): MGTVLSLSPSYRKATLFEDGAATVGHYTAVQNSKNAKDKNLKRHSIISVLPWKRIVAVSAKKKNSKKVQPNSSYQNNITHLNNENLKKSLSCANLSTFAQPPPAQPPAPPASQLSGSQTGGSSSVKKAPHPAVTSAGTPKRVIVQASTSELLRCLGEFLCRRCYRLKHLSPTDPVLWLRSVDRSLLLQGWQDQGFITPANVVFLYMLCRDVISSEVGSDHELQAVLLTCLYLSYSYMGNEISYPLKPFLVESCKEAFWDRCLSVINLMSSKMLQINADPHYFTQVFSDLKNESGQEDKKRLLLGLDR
Dual specificity protein kinase CLK2, sequence (P49760 whole entry): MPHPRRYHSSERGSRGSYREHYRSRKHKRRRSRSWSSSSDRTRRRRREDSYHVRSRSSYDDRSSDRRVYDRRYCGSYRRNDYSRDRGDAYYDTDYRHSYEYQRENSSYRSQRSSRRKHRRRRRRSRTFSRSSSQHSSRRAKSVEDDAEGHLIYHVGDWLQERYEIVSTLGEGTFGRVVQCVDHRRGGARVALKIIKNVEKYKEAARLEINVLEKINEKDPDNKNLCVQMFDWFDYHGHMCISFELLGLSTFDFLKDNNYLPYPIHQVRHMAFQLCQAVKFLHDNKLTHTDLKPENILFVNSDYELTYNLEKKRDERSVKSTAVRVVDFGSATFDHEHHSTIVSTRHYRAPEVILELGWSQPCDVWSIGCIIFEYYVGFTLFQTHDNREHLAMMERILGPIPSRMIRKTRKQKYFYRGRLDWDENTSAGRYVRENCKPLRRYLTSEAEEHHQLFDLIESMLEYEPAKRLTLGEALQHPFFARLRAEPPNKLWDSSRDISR

Row | IC50 [1] [nM] | IC50 [2] [nM] | IC50 [3] [nM] | IC50 [4] [nM] | IC50 [5] [nM] | IC50 [6] [nM] | IC50 [7] [nM] | IC50 [8] [nM] | SMILES
1 | > 10000 | 352 | 148 | 270 | 1510 | > 10000 | 1560 | 4310 | COC(CNC1=N/C(=C\c2ccc3ncsc3c2)C(=O)N1)c1ccccc1 (racemic)
2 | > 10000 | – | 2200 | 8620 | > 10000 | > 10000 | > 10000 | 5270 | CC(C)(C)OC(=O)N1CCC(CNC2=N/C(=C\c3ccc4ncsc4c3)C(=O)N2)CC1
3 | > 10000 | – | – | 795 | 1010 | > 10000 | 719 | > 10000 | C[C@@H]1[C@H]2C[C@@H](C[C@H]1NC1=N/C(=C\c3ccc4ncsc4c3)C(=O)N1)C2(C)C
4 | – | 777 | 100 | 628 | 1200 | > 10000 | 439 | 8750 | CO[C@H]1CCCC[C@@H]1NC1=N/C(=C\c2ccc3ncsc3c2)C(=O)N1
5 | – | 760 | 134 | 710 | 706 | > 10000 | 2730 | 3680 | O=C1NC(Nc2cccc(OC(F)F)c2)=N/C1=C\c1ccc2ncsc2c1
6 | > 10000 | 530 | 13 | 293 | 477 | > 10000 | 459 | 947 | O=C1NC(NC(CF)c2ccccc2)=N/C1=C\c1ccc2ncsc2c1 (racemic)
7 | > 10000 | – | 15 | 135 | 434 | > 10000 | 2550 | 6920 | O=C1NC(NCc2ccccc2C(F)(F)F)=N/C1=C\c1ccc2ncsc2c1
8 | > 10000 | 240 | 127 | 143 | 337 | > 10000 | 260 | 3260 | O=C1NC(NC2CC3CCC2C3)=N/C1=C\c1ccc2ncsc2c1 (racemic)
9 | – | 1570 | 648 | 1130 | 1060 | > 10000 | 731 | 9540 | CO[C@H]1CCCC[C@H]1NC1=N/C(=C\c2ccc3ncsc3c2)C(=O)N1 (racemic)
10 | > 10000 | 355 | – | 341 | 343 | > 10000 | 938 | 854 | O=C1NC(NC2CC23CCCCC3)=N/C1=C\c1ccc2ncsc2c1 (configuration not stated)
11 | > 10000 | 613 | 109 | 1230 | 1030 | > 10000 | 1240 | 3260 | O=C1NC(NCc2ccncc2)=N/C1=C\c1ccc2ncsc2c1
12 | > 10000 | 527 | 89 | 472 | 1170 | > 10000 | 288 | 4810 | O=C1NC(NCC(O)Cc2ccccc2)=N/C1=C\c1ccc2ncsc2c1 (racemic)
13 | – | 258 | – | 309 | 706 | > 10000 | 1250 | 4370 | O=C1NC(N[C@@H]2CCCC[C@@H](O)C2)=N/C1=C\c1ccc2ncsc2c1 (racemic)
14 | > 10000 | 109 | 162 | 119 | 611 | 5900 | 570 | > 10000 | O=C1NC(N[C@H]2CCCOC2)=N/C1=C\c1ccc2ncsc2c1
15 | > 10000 | – | – | 518 | 4200 | > 10000 | 9220 | > 10000 | Cc1ccc(CNC2=N/C(=C\c3ccc4ncsc4c3)C(=O)N2)c(C)c1
16 | > 10000 | 704 | 51 | 428 | 495 | 3890 | 383 | 2770 | O=C1NC(NC2CCCCOC2)=N/C1=C\c1ccc2ncsc2c1 (racemic)
17 | > 10000 | 256 | 117 | 211 | 350 | > 10000 | – | 1660 | O=C1NC(Nc2ccccn2)=N/C1=C\c1ccc2ncsc2c1
18 | > 10000 | – | 28 | 127 | 119 | > 10000 | 143 | 5560 | O=C1NC(NC2CCCCC2(F)F)=N/C1=C\c1ccc2ncsc2c1 (racemic)
19 | – | 174 | – | 646 | 753 | > 10000 | 698 | 6040 | O=C1NC(N[C@@H]2CCCC[C@H](O)C2)=N/C1=C\c1ccc2ncsc2c1 (racemic)
20 | > 10000 | 1380 | 80 | 1090 | 695 | > 10000 | 410 | 4160 | O=C1NC(NC(CO)C2CCCCC2)=N/C1=C\c1ccc2ncsc2c1 (racemic)
21 | – | 342 | 310 | 382 | 1360 | > 10000 | 551 | > 10000 | CO[C@@H]1CCCC[C@H]1NC1=N/C(=C\c2ccc3ncsc3c2)C(=O)N1
22 | 8460 | 391 | 24 | 175 | 296 | 2380 | 321 | 5690 | O=C1NC(NC2CCCC(F)(F)C2)=N/C1=C\c1ccc2ncsc2c1 (racemic)
23 | > 10000 | 7480 | 997 | 5100 | 450 | > 10000 | > 10000 | > 10000 | CN1CCN(c2cnc(NC3=N/C(=C\c4ccc5ncsc5c4)C(=O)N3)nc2)CC1
24 | 9800 | 296 | 11 | 626 | 122 | 2300 | 321 | 5370 | O=C1NC(N[C@H]2C3CC4CC2C[C@](O)(C4)C3)=N/C1=C\c1ccc2ncsc2c1
25 | > 10000 | 1180 | 236 | 604 | 1640 | > 10000 | 1850 | 9200 | O=C1NC(N[C@@H]2CCCOC2)=N/C1=C\c1ccc2ncsc2c1
26 | > 10000 | 1910 | – | 720 | 1250 | > 10000 | 1670 | 2410 | O=C1NC(N[C@@H](CO)CC2CCC2)=N/C1=C\c1ccc2ncsc2c1
27 | > 10000 | – | 33 | 376 | 1800 | > 10000 | 954 | 2150 | Cc1csc(CNC2=N/C(=C\c3ccc4ncsc4c3)C(=O)N2)n1
